Laboratory results taken from patent US7947679B2 (priority 2002, dated 2011).

Experiments:
Botrytis cinerea = conditions: in vivo
Plasmopara viticola = conditions: in vivo
Phytophthora infestans = assay type: in vivo; conditions: 200 ppm, tomato leaf disks, preventive, assessed four days after inoculation

CC(C)Nc1c(-c2c(F)cc(F)cc2F)c(Cl)nc2ncccc12 [3 (1), [2-chloro-3-(2,4,6-trifluorophenyl)-[1,8]naphthyridin-4-yl]-isopropylamine]
melting point: 193 °C | control of disease (Botrytis cinerea): greater than 60%

CC(C)Nc1c(-c2c(F)cc(F)cc2F)c(Cl)nc2ncc(Br)cc12 [3 (111), [6-bromo-2-chloro-3-(2,4,6-trifluorophenyl)-[1,8]naphthyridin-4-yl]-isopropylamine]
control of disease (Plasmopara viticola): greater than 60%

Fc1cc(F)c(-c2c(Cl)nc3ncccc3c2N2CCOCC2)c(F)c1 [20 (1), 2-chloro-4-morpholin-4-yl-3-(2,4,6-trifluorophenyl)-[1,8]naphthyridine]
control of disease (Phytophthora infestans): greater than 60%

CC(C)Nc1nc2ncccc2c(Cl)c1-c1c(F)cc(F)cc1F
melting point: 202 °C
